We go through 21 compounds from patent US20070072897A1, “Phenylaminopropanol derivatives and methods of their use” (Wyeth, priority 2005, published 2007).

For one test, the target named is T1, human 5-HT2A receptor (Homo sapiens, UniProt P28223).
T1 construct: expressed in transfected cells; host or cells: CHO
Kind of test: 5-HT2A FLIPR assay (calcium response to DOI) in CHO cells. In kind it is cell-based. As to conditions: for inhibition at 1 µM: CHO, read-out: 5-HT2A Percentage inhibition at 1 μM; for IC50: antagonist inhibition of 3 nM DOI stimulation, CHO cells, FLIPR. On the procedure: Cells are washed with PBS without Ca^2+ and 3 mL Trypsin is added to dissociate cells. After 3 minute incubation, 7 mL Trypsin Neutralizing Solution is added. Cells are then aspirated from flask and mixed in a 50 mL conical tube. 10 μL sample is used to count cells on a hemacytometer. […] Two 96-well drug plates are prepared for each cell plate. Plate 1 will contain compounds to be tested and plate 2 will contain the agonist DOI (3 nM) to activate a calcium response. Specific details of compound preparation are listed below. […] Outside wells are not used due to an edge effect seen in these cells. The reference compounds DOI and 5-HT are used as standard 5HT agonists. […] Standards for plate one are Vehicle, 1 μM DOI, and 3 nM MDL. […] On the day of the assay, test compound solutions of appropriate concentrations are diluted in assay buffer as described for single concentration testing. This procedure is followed to ensure that the solvent concentration is consistent across dilutions. The typical concentration testing range of compounds is 10^−10—10^−5 M in half log or full log increments. A 10 μM DOI stock is diluted to 60 nM and added to the respective wells. The pipeting station of the FLIPR will make an additional 20-fold dilution for a final concentration of 3 nM. Standards for this plate include Vehicle and 3 nM DOI. Contents of dye vial (Molecular Devices #R8090) are dissolved in 100 mL of 1×HBSS supplemented with 20 mM HEPES. Aliquots can be frozen at −20° C. for up to one week for future use. On the day of assay, dye is thawed and diluted to half concentration. […] Cells are allowed to adhere for 24 hours in 96-well plates. […] Cell, compound and DOI plates are loaded into the FLIPR machine. The baseline fluorescence level is read once every second for 1 minute. Compound (10 μL) is transferred from the compound plate to the cells and the fluorescence level recorded every 6 seconds for 2 minutes to determine any agonist activity. Baseline fluorescence is recorded again every second for 10 seconds. For antagonist determination, 10 μL of 3 nM DOI is transferred from the DOI plate to the cells and the fluorescence level recorded every 6 seconds for 5 minutes. The pipetting unit of the FLIPR machine completes all transfers. […] The data are log transformed prior to analysis.

Another test addresses T2, human hNET (Homo sapiens, UniProt P23975).
T2 construct: expressed in transfected cells; host or cells: MDCK (MDCK-Net6)
Kind of test: Norepinephrine (NE) uptake assay in MDCK-Net6 cells. As to conditions: [3H]NE uptake; for EC50: MDCK-Net6 cells stably transfected with hNET; for inhibition at 1 µM: MDCK-Net6 cells, read-out: hNET Percentage inhibition at 1 μM. In kind it is cell-based. The method, then:
Cells were plated at 300,000/T75 flask and cells were split twice weekly. […] Cells were plated at 250,000 cells/T75 flask and split twice weekly.
Norepinephrine (NE) Uptake Assay
On day 1, cells were plated at 3,000 cells/well in growth medium and maintained in a cell incubator (37° C., 5% CO2). On day 2, growth medium was replaced with 200 μl of assay buffer (25 mM HEPES; 120 mM NaCl; 5 mM KCl; 2.5 mM CaCl2; 1.2 mM MgSO4; 2 mg/ml glucose (pH 7.4, 37° C.)) containing 0.2 mg/ml ascorbic acid and 10 μM pargyline. Plates containing cells with 200 μl of assay buffer were equilibrated for 10 minutes at 37° C. prior to addition of compounds. A stock solution of desipramine was prepared in DMSO (10 mM) and delivered to triplicate wells containing cells for a final test concentration of 1 μM. Data from these wells were used to define non-specific NE uptake (minimum NE uptake). Test compounds were prepared in DMSO (10 mM) and diluted in assay buffer according to test range (1 to 10,000 nM). Twenty-five microliters of assay buffer (maximum NE uptake) or test compound were added directly to triplicate wells containing cells in 200 μl of assay buffer. The cells in assay buffer with test compounds were incubated for 20 minutes at 37° C. […] The reaction was terminated by decanting the supernatant from the plate. The plates containing cells were washed twice with 200 μl assay buffer (37° C.) to remove free radioligand. The plates were then inverted, left to dry for 2 minutes, then reinverted and air-dried for an additional 10 minutes. […] After cell lysis, 75 μl of scintillation cocktail was added to each well and the plates were sealed with film tape. The plates were returned to the shake table and vigorously shaken for a minimum of 10 minutes to ensure adequate partitioning of organic and aqueous solutions. The plates were counted in a Wallac Microbeta counter (PerkinElmer) to collect the raw cpm data.
For each experiment, a data stream of cpm values collected from the Wallac Microbeta counter was downloaded to a Microsoft Excel statistical application program. Calculations of EC50 values were made using the transformed-both-sides logistic dose response program written by Wyeth Biometrics Department.

A word on the inhibition: it is the share of the control response that was lost under treatment. As usually defined, the EC50 is the midpoint of the concentration-response curve. A lower EC50 goes with a more potent agent. Broadly, the IC50 is the concentration needed to halve the response being measured.

Counter-ions that a name gives are not always drawn.

T1 sequence (P28223 whole entry): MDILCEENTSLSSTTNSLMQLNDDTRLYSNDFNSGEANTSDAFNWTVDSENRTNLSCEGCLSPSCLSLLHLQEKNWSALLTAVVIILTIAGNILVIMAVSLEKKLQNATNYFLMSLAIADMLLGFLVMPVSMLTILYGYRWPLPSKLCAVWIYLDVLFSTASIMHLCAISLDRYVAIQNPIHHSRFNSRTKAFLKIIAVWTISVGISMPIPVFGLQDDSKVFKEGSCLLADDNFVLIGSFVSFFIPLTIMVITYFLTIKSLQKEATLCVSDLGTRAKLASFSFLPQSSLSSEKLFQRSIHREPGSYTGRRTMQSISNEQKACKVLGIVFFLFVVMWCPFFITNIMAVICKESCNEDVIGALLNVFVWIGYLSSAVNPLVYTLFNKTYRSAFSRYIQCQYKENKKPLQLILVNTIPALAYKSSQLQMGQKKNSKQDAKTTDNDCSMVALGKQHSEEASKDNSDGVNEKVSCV
T2 sequence (P23975 whole entry): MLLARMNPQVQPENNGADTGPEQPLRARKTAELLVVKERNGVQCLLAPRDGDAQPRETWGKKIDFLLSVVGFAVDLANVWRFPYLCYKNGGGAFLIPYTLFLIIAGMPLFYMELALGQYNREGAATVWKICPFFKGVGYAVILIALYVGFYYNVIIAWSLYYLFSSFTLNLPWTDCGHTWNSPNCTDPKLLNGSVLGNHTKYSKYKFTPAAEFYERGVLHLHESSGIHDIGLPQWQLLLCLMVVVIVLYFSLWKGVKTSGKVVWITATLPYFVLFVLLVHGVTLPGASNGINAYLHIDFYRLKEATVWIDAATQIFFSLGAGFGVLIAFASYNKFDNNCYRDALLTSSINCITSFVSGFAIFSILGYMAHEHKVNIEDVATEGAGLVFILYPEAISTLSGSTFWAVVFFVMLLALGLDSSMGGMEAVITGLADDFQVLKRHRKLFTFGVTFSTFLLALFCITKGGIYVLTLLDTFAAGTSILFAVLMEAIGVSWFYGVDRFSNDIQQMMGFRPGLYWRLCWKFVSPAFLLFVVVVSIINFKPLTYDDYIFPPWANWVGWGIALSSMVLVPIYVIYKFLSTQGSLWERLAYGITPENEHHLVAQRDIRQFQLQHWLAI

`CNC[C@@H](O)[C@H](c1ccccc1)n1ccc2c(OCc3ccccc3)cccc21` [Example 2, (1S,2R)-1-[4-(benzyloxy)-1H-indol-1-yl]-3-(methylamino)-1-phenylpropan-2-ol hydrochloride]: the inhibition at 1 µM at human 5-HT2A receptor was 29%. Moreover, at human hNET, the midpoint of the response, the EC50, lay at 310 nM.

Regarding `CNC[C@@H](O)[C@H](c1ccccc1)n1ccc2ccc(OCc3ccccc3)cc21` [Example 3, (1S,2R)-1-[6-(benzyloxy)-1H-indol-1-yl]-3-(methylamino)-1-phenylpropan-2-ol hydrochloride], the inhibition at 1 µM amounted to 39% on human 5-HT2A receptor and 2% on human hNET.

For the compound `CNC[C@@H](O)[C@H](c1ccccc1)n1ccc2cccc(OCc3ccccc3)c21` [Example 4, (1S,2R)-1-[7-(benzyloxy)-1H-indol-1-yl]-3-(methylamino)-1-phenylpropan-2-ol hydrochloride], the IC50 on human 5-HT2A receptor stood at 1470 nM. Also, at human hNET, the inhibition at 1 µM was found to be 20%.

Take `CNC[C@@H](O)[C@H](c1ccccc1)n1ccc2cc(OCc3ccccc3OC)ccc21` [Example 5, (1S,2R)-1-{5-[(2-methoxybenzyl)oxy]-1H-indol-1-yl}-3-(methylamino)-1-phenylpropan-2-ol hydrochloride]: the IC50 at human 5-HT2A receptor is 678 nM. On human hNET, a half-maximal effect (EC50) was put at 196 nM.

Turning to `CNC[C@@H](O)[C@H](c1ccccc1)n1ccc2cc(OCc3cccc(OC)c3)ccc21` [Example 6, (1S,2R)-1-{5-[(3-methoxybenzyl)oxy]-1H-indol-1-yl}-3-(methylamino)-1-phenylpropan-2-ol hydrochloride], the IC50 on human 5-HT2A receptor was 888 nM. A half-maximal effect at human hNET (EC50) was put at 17 nM.

On to `CNC[C@@H](O)[C@H](c1ccccc1)n1ccc2cc(OCc3ccc(OC)cc3)ccc21` [Example 7, (1S,2R)-1-{5-[(4-methoxybenzyl)oxy]-1H-indol-1-yl}-3-(methylamino)-1-phenylpropan-2-ol hydrochloride], for which, on human 5-HT2A receptor, the IC50 stood at 281 nM. For the same compound, at human hNET, the midpoint of the response, the EC50, lay at 32 nM.

Take `CNC[C@@H](O)[C@H](c1ccccc1)n1ccc2cc(OCc3ccccc3Cl)ccc21` [Example 8, (1S,2R)-1-{5-[(2-chlorobenzyl)oxy]-1H-indol-1-yl}-3-(methylamino)-1-phenylpropan-2-ol hydrochloride]: the IC50 on human 5-HT2A receptor was found to be 658 nM. Further, the EC50 at human hNET was determined as 147 nM.

In the case of `CNC[C@@H](O)[C@H](c1ccccc1)n1ccc2cc(OCc3cccc(Cl)c3)ccc21` [Example 9, (1S,2R)-1-{5-[(3-chlorobenzyl)oxy]-1H-indol-1-yl}-3-(methylamino)-1-phenylpropan-2-ol hydrochloride], the inhibition at 1 µM on human 5-HT2A receptor worked out at 39%. The same compound displayed an EC50 on human hNET of 89 nM.

In the case of `CNC[C@@H](O)[C@H](c1ccccc1)n1ccc2cc(OCc3ccc(Cl)cc3)ccc21` [Example 10, (1S,2R)-1-{5-[(4-chlorobenzyl)oxy]-1H-indol-1-yl}-3-(methylamino)-1-phenylpropan-2-ol hydrochloride], at human 5-HT2A receptor, the IC50 came to 712 nM. For the same compound, the midpoint of the response at human hNET, the EC50, lay at 67 nM.

Regarding `CNC[C@@H](O)[C@H](c1ccccc1)n1ccc2cc(OCc3ccccc3F)ccc21` [Example 11, (1S,2R)-1-{5-[(2-fluorobenzyl)oxy]-1H-indol-1-yl}-3-(methylamino)-1-phenylpropan-2-ol hydrochloride], the IC50 at human 5-HT2A receptor was 1260 nM. Moreover, the EC50 at human hNET turned out to be 52 nM.

As for `CNC[C@@H](O)[C@H](c1ccccc1)n1ccc2cc(OCc3cccc(F)c3)ccc21` [Example 12, (1S,2R)-1-{5-[(3-fluorobenzyl)oxy]-1H-indol-1-yl}-3-(methylamino)-1-phenylpropan-2-ol hydrochloride], the IC50 on human 5-HT2A receptor was found to be 979 nM. On human hNET, this compound gave an EC50 of 36 nM.

Turning to `CNC[C@@H](O)[C@H](c1ccccc1)n1ccc2cc(OCc3ccc(F)cc3)ccc21` [Example 13, (1S,2R)-1-{5-[(4-fluorobenzyl)oxy]-1H-indol-1-yl}-3-(methylamino)-1-phenylpropan-2-ol hydrochloride], the IC50 at human 5-HT2A receptor worked out at 468 nM. The EC50 on human hNET came to 31 nM.

Take `CNC[C@@H](O)[C@H](c1ccccc1)n1ccc2cc(OCc3ccccc3C)ccc21` [Example 14, (1S,2R)-3-(methylamino)-1-{5-[(2-methylbenzyl)oxy]-1H-indol-1-yl}-1-phenylpropan-2-ol hydrochloride]: the IC50 at human 5-HT2A receptor was 442 nM. At human hNET, this compound gave an EC50 of 109 nM.

As for `CNC[C@@H](O)[C@H](c1ccccc1)n1ccc2cc(OCc3cccc(C)c3)ccc21` [Example 15, (1S,2R)-3-(methylamino)-1-{5-[(3-methylbenzyl)oxy]-1H-indol-1-yl}-1-phenylpropan-2-ol hydrochloride], the IC50 at human 5-HT2A receptor is 809 nM. The compound also displayed an EC50 at human hNET of 88 nM.

`CNC[C@@H](O)[C@H](c1ccccc1)n1ccc2cc(OCc3ccc(C)cc3)ccc21` [Example 16, (1S,2R)-3-(methylamino)-1-{5-[(4-methylbenzyl)oxy]-1H-indol-1-yl}-1-phenylpropan-2-ol hydrochloride]: the IC50 at human 5-HT2A receptor was determined as 4120 nM. This compound also had an EC50 at human hNET of 37 nM.

`CNC[C@@H](O)[C@H](c1ccccc1)n1ccc2cc(OCCc3ccccc3)ccc21` [Example 18, (1S,2R)-3-(methylamino)-1-phenyl-1-[5-(2-phenylethoxy)-1H-indol-1-yl]propan-2-ol hydrochloride]: the IC50 on human 5-HT2A receptor was found to be 1200 nM. At human hNET, this compound had an EC50 of 219 nM.

In the case of `CNC[C@@H](O)[C@H](c1ccccc1)n1ccc2cc(Oc3ccccc3)ccc21` [Example 19, (1S,2R)-3-(methylamino)-1-[5-(phenoxy)-1H-indol-1-yl]-1-phenylpropan-2-ol hydrochloride], the values for the inhibition at 1 µM at human 5-HT2A receptor and at human hNET were 39% and 27%, respectively.

For `CNC[C@@H](O)[C@H](c1ccccc1)n1ccc2c(Oc3ccccc3)cccc21` [Example 20, (1S,2R)-3-(methylamino)-1-[4-(phenoxy)-1H-indol-1-yl]-1-phenylpropan-2-ol hydrochloride], the inhibition at 1 µM on human 5-HT2A receptor is 30%. Further, the midpoint of the response at human hNET, the EC50, lay at 227 nM.

In the case of `CNC[C@@H](O)[C@H](c1ccccc1)n1ccc2c(-c3ccccc3)cccc21` [Example 21, (1S,2R)-3-(methylamino)-1-phenyl-1-(4-phenyl-1H-indol-1-yl)propan-2-ol hydrochloride], the inhibition at 1 µM on human 5-HT2A receptor was 27%; at human hNET it was 56%.

As to `CNC[C@@H](O)[C@H](c1ccccc1)n1ccc2ccc(-c3ccccc3)cc21` [Example 22, (1S,2R)-3-(methylamino)-1-phenyl-1-(6-phenyl-1H-indol-1-yl)propan-2-ol hydrochloride], on human 5-HT2A receptor, the inhibition at 1 µM stood at 16%. Moreover, it took 35 nM to reach a half-maximal effect on human hNET (EC50).

`CNC[C@@H](O)[C@H](c1ccccc1)n1ccc2cccc(-c3ccccc3)c21` [Example 23, (1S,2R)-3-(methylamino)-1-phenyl-1-(7-phenyl-1H-indol-1-yl)propan-2-ol hydrochloride]: on human 5-HT2A receptor, the IC50 stood at 2600 nM. The inhibition at 1 µM at human hNET was found to be 48%.
